Assay results: article PMC8692498, “Synthesis and multifaceted pharmacological activity of novel quinazoline NHE-1 inhibitors” (Scientific Reports, 2021)
Entries after “also recorded” stand apart in the source; their conditions may differ.

Tests used:
NHE-1 [1] = biological target: T1, NHE-1 (Oryctolagus cuniculus, UniProt P23791); assay: NHE-1 inhibition assay on rabbit platelets (platelet shape change after acidification with sodium propionate, laser aggregometer); type: cell-based; settings: for inhibition at 0.01 µM: 10 nM, rabbit platelet-rich plasma, decimal commas, read-out: NHE-1 inhibition at 10 nM, m ± SD, n = 6 (%); for NHE-1 inhibitory activity (in words): compared with reference drugs
T1 construct: endogenous in cells; host or cells: rabbit platelets in platelet-rich plasma (male rabbits)
Experimental: Evaluation of NHE-1 inhibition was carried out on rabbit platelets by the known method[39],[40]. The experiments were carried out on 15 male rabbits weighing 3.0-4.0 kg. Platelet-rich plasma (PRP) was obtained by centrifuging blood with 3.8% sodium citrate (1:10) at 1000 rpm for 12 min (Multi centrifuge CM 6M, Latvia). Platelet shapeshifting due to acidification was followed with a laser aggregometer BIOLA-220 LA (Russia). Test compounds (10 μl, 10 nM final concentration) were added to 200 μl of PRP 5 min in a cuvette before the addition of sodium propionate solution, incubated with constant stirring using a magnetic stirrer (800 rpm, 37 °C). To control samples for NHE-1 activation, a buffer solution containing sodium propionate was added to 200 μL of PRP (600 μL, 135 mM sodium propionate, 20 mM HEPES, 1 mM CaCI2, 1 mM MgCI2, 10 mM glucose; pH 6.7). The change in light transmission at pH 7.4, 37 °C was monitored in a Krebs solution (600 μL, 120 mM NaCl, 4.8 mM KCl, 1.2 mM KH2PO4, 2.5 mM MgSO4, 25 mM NaHCO3, 2.6 mM CaCl2, 5.4 mM glucose; pH 7.4). Test compounds were added to a final concentration of 10 nM to the cuvette into 200 μl of PRP 5 min before adding the sodium propionate solution, incubated with constant stirring using a magnetic stirrer (800 rpm, 37 °C). NHE-1 inhibitors zoniporide, rimeporide, amiloride were used as reference drugs. Assays were run in 6 independent series.

[2] = tested on: primary peritoneal macrophages of C57BL/6J mice; assay: Interleukin-6 secretion (ELISA) from LPS-stimulated peritoneal macrophages; type: cell-based; settings: for secretion of interleukin 6: LPS-stimulated macrophages, screening (Fig. 4)
Experimental: (§1) Peritoneal macrophages (PM) were isolated from the peritoneal exudate of 30 male C57bl/6j mice. To accumulate PM, 1 ml of 3% peptone solution was injected intraperitoneally. After 3 days the mice were euthanized by cervical dislocation. Cells of peritoneal exudate were obtained by aseptically washing the abdominal cavity with 5 ml of sterile Hanks’s solution (+ 4-6 °C) without calcium and magnesium ions. The total number and viability of cells were assessed in a Goryaev counting chamber (Russia) with a 0.4% trypan blue staining (Sigma-Aldrich, USA). The cell concentration was adjusted to 1.0×10^6 cells/ml in DMEM (Gibco) supplemented with 2 mM L-glutamine (Gibco), 10% heat-inactivated fetal bovine serum (BioClot, Germany), 100 U/ml penicillin and […] streptomycin (Gibco) and plated 200 μl/well in 96-well transparent plates (SPL Life Sciences Co., Ltd., Korea). It was left for 2 h at 37°C in a humidified atmosphere with 5% CO2, after which the wells were washed to remove non-adherent cells. After 24 hours of incubation, 20 μl of the supernatant was removed and 20 μl of solutions of test compounds were added 30 min before E. coli O127:B8 LPS (100 ng/ml final concentration). Experiments were run in 3 independent replicates.
Cell supernatant was collected and centrifuged at 1000 g for 20 min in a 2-16PK Sigma centrifuge (Germany). The concentration of IL-6 was determined by ELISA using a commercial kit (Cloud-clone ELISA kit) with a microplate reader Infinite M200 PRO (Tecan, Austria).

[3] = Cytotoxicity study (LDH activity in the medium) in peritoneal macrophages; type: cell-based; settings: male, C57BL/6J, mouse, primary peritoneal macrophages; murine peritoneal macrophages, LDH, unit printed in Cyrillic
Experimental: as §1
(§2) The activity of lactate dehydrogenase (LDH) in a cell culture medium served as a marker of membrane permeability and cell death. Aliquotes of supernatants were taken after 24 h of inoculation with test compounds, mixed with 250 μl of […] NADH solution in 54 mM phosphate buffered saline (pH 7.5). Then, 25 μl of a 6.48 mM pyruvate solution was added to the mixture. The optical density was followed at a wavelength of 340 nm for 20 min. Conversion of optical density into cell viability was carried out according to a standard curve (DMSO-treated cells as 100% and 0.01% Triton X-100-treated cells as 0% viable cells).

NHE-1 [4] = biological target: T1, NHE-1; assay: NHE-1 inhibition assay on rabbit platelets (platelet shape change after acidification with sodium propionate, laser aggregometer); type: cell-based
rabbit platelets = assay: ADP-induced platelet aggregation assay in rabbit platelet-rich plasma; type: cell-based; settings: 100 μM, ADP 5 μM
Experimental: (§3) Functional activity of platelets was determined on a two-channel laser analyzer of platelet aggregation "BIOLA-220 LA" (Russia) as described previously. The experiments were carried out on 6 male rabbits weighing 3.5–4 kg. To prepare platelet-rich plasma (PRP) venous blood was taken from the ear marginal vein of a rabbit, stabilized with a 3.8% sodium citrate solution in a ratio of 9:1 and centrifuged for 10 min at 1500 rpm. PRP (300 μL) and a solution of the test compound at a concentration of 100 μM were sequentially introduced into the cell of the aggregometer. The samples were incubated in thermostated cells of the aggregometer at 37 °C for 5 min. To induce aggregation adenosine-5-diphosphoric acid (ADP, Sigma, USA) at a final concentration of 5 μM, was added to the cuvette. Acetylsalicylic acid (Shandong Xinhua Pharmaceutical Co., Ltd., China) was used as a reference drug. Experiments were run in 5 independent replicates.

[5] = tested on: primary peritoneal macrophages of C57BL/6J mice; assay: Cytotoxicity study (LDH activity in the medium) in peritoneal macrophages; type: cell-based; settings: 100 μM, peritoneal macrophages
Experimental: as §1, §2

[6] = tested on: primary peritoneal macrophages of C57BL/6J mice; assay: Nitric oxide synthesis (nitrite, Griess reagent) in LPS-stimulated peritoneal macrophages; type: cell-based; settings: 100 μM
Experimental: as §1
The accumulation of nitrite anion (a stable end product of NO decomposition produced by iNOS) in supernatants was determined using a standard Griess reagent. Briefly, 50 μl of supernatants collected 22 hours after incubation of PM with test and control compounds were mixed with 50 μl of 1% sulfonamide in 2.5% H3PO4 and 50 μl of 0.1% N-(1-naphthyl) ethylenediamine in 2,5% H3PO4. After incubation at 23 °C for 10 min in an orbital shaker, the optical density was determined at a wavelength of 550 nm with a microplate reader Infinite M200 PRO (Tecan, Austria).

intraocular pressure = assay: Intraocular pressure studies in outbred rats (TonoVet); type: in vivo
Experimental: The experiments were carried out on 75 adult outbred rats of both sexes, which were kept in standard cages at a temperature of 25 °C and a standard light regime. Animals were randomly assigned to the control and experimental groups (n = 5). Before the start of the experiment, the rats had free access to food and water. Intraocular pressure (IOP) was measured with a TonoVet device (Finland)[44] which measures IOP with a short touch of a small disposable tip in the center of the cornea, no corneal anesthesia is required. The study was carried out according to the published method. One drop (50 μl) of a test 0.4% solution of the compound was instilled into the right eye, and deionized water was added to the left eye. IOP was measured in both eyes. The left eye, in turn, serves to assess the possible systemic exposure of the test compounds. […] IOP-lowering activity was assessed as the maximum decrease in IOP from the initial values. At 9:00 AM, baseline IOP was measured in animals of all groups. Experiments were run in 5 independent replicates.

[7] = Solubility under the conditions of the platelet aggregation assay; type: physicochemical; settings: antiplatelet assay
Experimental: Test compounds were dissolved in 99% DMSO (stock concentration 40 mM) and stored at –25 °C. If sediment or opalescence was detected, 5% Tween 20 (Merck) was added. Serial dilutions were prepared ex tempore in a media suitable for the particular study. Final concentration in samples: DMSO <0.25%, Tween 20 <0.025% (were added to control samples in equal concentrations).
as §3

T1 sequence (P23791 whole entry): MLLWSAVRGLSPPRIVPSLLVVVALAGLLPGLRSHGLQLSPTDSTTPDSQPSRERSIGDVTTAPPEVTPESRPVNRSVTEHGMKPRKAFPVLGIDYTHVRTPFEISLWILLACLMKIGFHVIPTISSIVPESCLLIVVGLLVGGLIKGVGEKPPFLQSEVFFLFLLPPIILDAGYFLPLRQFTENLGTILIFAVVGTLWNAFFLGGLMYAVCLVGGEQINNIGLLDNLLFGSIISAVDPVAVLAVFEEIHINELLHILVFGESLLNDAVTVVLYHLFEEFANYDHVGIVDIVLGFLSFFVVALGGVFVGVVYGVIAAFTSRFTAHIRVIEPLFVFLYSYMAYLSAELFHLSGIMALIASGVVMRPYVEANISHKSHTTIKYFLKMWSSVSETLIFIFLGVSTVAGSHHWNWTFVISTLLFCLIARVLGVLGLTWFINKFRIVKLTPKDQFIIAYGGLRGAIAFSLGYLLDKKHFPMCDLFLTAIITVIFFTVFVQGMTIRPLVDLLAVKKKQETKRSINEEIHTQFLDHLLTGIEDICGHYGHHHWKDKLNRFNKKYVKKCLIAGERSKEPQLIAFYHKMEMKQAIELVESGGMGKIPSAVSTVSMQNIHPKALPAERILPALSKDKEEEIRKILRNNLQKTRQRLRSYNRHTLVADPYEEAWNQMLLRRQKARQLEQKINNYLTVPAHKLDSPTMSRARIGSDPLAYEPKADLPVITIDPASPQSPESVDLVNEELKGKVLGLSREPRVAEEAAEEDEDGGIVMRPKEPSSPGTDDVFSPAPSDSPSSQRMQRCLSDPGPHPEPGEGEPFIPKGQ

Compound	melting point [°C]	inhibition at 0.01 µM (NHE-1 [1]) [%]	IC50 (NHE-1 [4]) [nM]	NHE-1 inhibitory activity (in words) (NHE-1 [1])	further results
CC(c1nnc(N)[nH]1)n1c(=O)c2ccccc2n(C)c1=O (centres unmarked) (hydrate or solvate) [Compound 3f, 3-[1-(5-Amino-4H-1,2,4-triazol-3-yl)ethyl]-1-methylquinazoline-2,4(1H,3H)-dione]	91 to 93				
C=CCn1c(=O)n(C(C)c2nnc(N)[nH]2)c(=O)c2ccccc21 (centres unmarked) (hydrate or solvate) [Compound 3h, 3-[1-(5-Amino-4H-1,2,4-triazol-3-yl)ethyl]-1-(prop-2-en-1-yl)quinazoline-2,4(1H,3H)-dione]	116 to 118				
N=C(N)NC(=O)c1nc(Cl)c(N)nc1N [Amiloride, amiloride, reference compound]		16.4	1230		IC50 ([2]; Mus musculus, Peritoneal macrophage, LPS-stimulated murine macrophages, unit printed in Cyrillic, read-out: IC50 of IL-6 secretion): 9520 nM; CC50 at 24 h [3]: > 100000 nM
Cn1c(=O)n(CC(=O)NC(=N)N)c(=O)c2ccccc21 [Compound 3a, N-Carbamimidoyl-2-(1-methyl-2,4-dioxo-1,4-dihydroquinazolin-3(2H)-yl)acetamide]	266 to 269	33.7	293	comparable to the reference drug rimeporide	antiplatelet activity versus acetylsalicylic acid (rabbit platelets): exceeded the activity of the reference drug, acetylsalicylic acid
CC(C(=O)NC(=N)N)n1c(=O)c2ccccc2n(C)c1=O (centres unmarked) [Compound 3b, N-Carbamimidoyl-2-(1-methyl-2,4-dioxo-1,4-dihydroquinazolin-3(2H)-yl)propanamide]	216 to 219	1.49			secretion of interleukin 6 [2]: suppressed
N=C(N)NC(=O)Cn1c(=O)c2ccccc2n(Cc2ccccc2)c1=O [Compound 3c, 2-(1-Benzyl-2,4-dioxo-1,4-dihydroquinazolin-3(2H)-yl)-N-carbamimidoylacetamide]	180 to 183	7.3			secretion of interleukin 6 [2]: suppressed
Cn1c(=O)n(CC(=O)NC(=N)N)c(=O)c2cc(Br)ccc21 [Compound 3d, 2-(6-Bromo-1-methyl-2,4-dioxo-1,4-dihydroquinazolin-3(2H)-yl)-N-carbamimidoylacetamide]		33.2	961	comparable to the reference drug rimeporide	effect on cell viability [5]: absence of a statistically significant effect on cell viability; inhibition of the synthesis of nitric oxide [6]: statistically significantly inhibit; IOP-lowering effect size (intraocular pressure; compared with zoniporide and timolol): comparable to zoniporide and superior to timolol; IOP-lowering activity (intraocular pressure; one drop (50 μl) of 0.4% solution instilled): statistically significant activity; also recorded: markedly reduce intraocular pressure
CC(c1nnc(N)[nH]1)n1c(=O)c2ccccc2n(C)c1=O (centres unmarked) [Compound 3f, 3-[1-(5-Amino-4H-1,2,4-triazol-3-yl)ethyl]-1-methylquinazoline-2,4(1H,3H)-dione]		29.8			antiplatelet activity versus acetylsalicylic acid (rabbit platelets): exceeded the activity of the reference drug, acetylsalicylic acid
C=CCn1c(=O)n(Cc2nnc(N)[nH]2)c(=O)c2ccccc21 [Compound 3g, 3-[(5-Amino-4H-1,2,4-triazol-3-yl)methyl]-1-(prop-2-en-1-yl)quinazoline-2,4(1H,3H)-dione]	275 to 277	10.4			
C=CCn1c(=O)n(C(C)c2nnc(N)[nH]2)c(=O)c2ccccc21 (centres unmarked) [Compound 3h, 3-[1-(5-Amino-4H-1,2,4-triazol-3-yl)ethyl]-1-(prop-2-en-1-yl)quinazoline-2,4(1H,3H)-dione]		33.2		comparable to the reference drug rimeporide	antiplatelet activity versus acetylsalicylic acid (rabbit platelets): exceeded the activity of the reference drug, acetylsalicylic acid
Nc1nnc(Cn2cnc3ccccc3c2=O)[nH]1 [Compound 6a, 3-[(5-Amino-4H-1,2,4-triazol-3-yl)methyl]quinazolin-4(3H)-one]		54.1	6.7	more potent and comparable to zoniporide	solubility under assay conditions [7]: insoluble under assay conditions
[H]/N=C(\N)NC(=O)c1cc(S(C)(=O)=O)c(S(C)(=O)=O)cc1C [Rimeporide, rimeporide, reference compound]		34.2			
N=C(N)NC(=O)c1cnn(-c2cccc3ncccc23)c1C1CC1 [Zoniporide, zoniporide, reference compound]		48	7.3		
